Patent publication US20040241754A1, “Modulating neuronal plasticity” (The Salk Institute for Biological Studies, priority 2003, published 2004)
“Also recorded” adds a separate entry of the source. Square brackets hold non-standard residues; d marks the D form. Ends that are not written are not given here. pS = N[C@@H](COP(=O)(O)O)C(=O)O

Columns and labels:
GRIP PDZ4-6 = target: T1, GRIP PDZ4-6 (Rattus norvegicus, UniProt P97879); experiment: Competitive binding of 35S-EphB2 to His-GRIP-PDZ4-6; conditions: for displacement of labeled EphB2 from GRIP PDZ4-6: concentrations of up to 10 μM peptide
T1 construct: corresponding to GRIP1 (amino acid 448-792); made in house; host or cells: E. coli BL21
T1 sequence (P97879 448-792): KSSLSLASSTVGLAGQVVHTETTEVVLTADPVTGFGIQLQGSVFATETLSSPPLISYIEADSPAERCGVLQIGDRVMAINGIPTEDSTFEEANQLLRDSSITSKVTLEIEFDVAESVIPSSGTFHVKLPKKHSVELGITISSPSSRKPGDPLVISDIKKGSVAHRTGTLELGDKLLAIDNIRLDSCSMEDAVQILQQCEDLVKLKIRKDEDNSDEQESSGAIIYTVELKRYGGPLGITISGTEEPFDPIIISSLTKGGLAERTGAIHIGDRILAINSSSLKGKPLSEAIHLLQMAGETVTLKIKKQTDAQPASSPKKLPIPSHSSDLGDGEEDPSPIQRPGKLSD
Description: A competitive binding assay was prepared to determine if the LTP inhibitory effects of the GluR2ct peptide were mediated through disruption of binding between Eph receptors and PDZ domain 6 of GRIP (Torres et al., Neuron 21, 1453-63. (1998)) as opposed to disruption of binding between the GluR2 subunit and the GluR2-binding PDZ 4 and 5 domains of GRIP (Dong et al., Nature 386, 279-84. (1997)). For this purpose, a binding assay was established between GRIP PDZ domain fragments (His-GRIP-PDZ4-6) and an EphB2 carboxy terminal fusion protein labeled with ^35S-methionine (^35S-EphB2).
Briefly, the carboxy terminal region of EphB2 corresponding to mouse EphB2 receptor (amino acid 930-993) was generated by PCR from mouse brain library and subcloned into pGEX2TK (Pharmacia). The GRIP(PDZ4-6) construct, corresponding to GRIP1 (amino acid 448-792) was obtained by PCR from an adult rat hippocampal library and subcloned into pRSET vector. E coli (strain BL21) were transformed with His-GRIP(PDZ4-6) and GST-EphB2 and protein production induced with IPTG. GST-EphB2 protein was purified on glutathionine beads and ^35S-EphB2 cleaved from GST with thrombin (1 U/μg). GRIP(PDZ4-6) protein was purified on Ni-NTA agarose, and eluted with imadazole. ^35S-EphB2 (50 nM) was incubated with (15 μg) of His-GRIP(PDZ4-6) protein in PBS buffer with protease inhibitors for 2 hrs at 22° C. in the absence or presence of peptides. ^35S-EphB2 binding to His-GRIP(PDZ4-6) was determined after a 45 min incubation with Ni-NTA agarose and vacuum filtration onto Whatman GFB filter circles (pretreated with 3% BSA). Filters were washed with ice-cold PBS buffer, allowed to equilibrate overnight in ECOLUME scintillation cocktail (ICN pharmaceuticals, Irvine Calif.), and specific counts measured in a scintillation counter. Non-specific binding was defined as the residual binding measured in the absence of His-GRIP(PDZ4-6).

[1] = system: mossy fiber synapses of hippocampal CA3 pyramidal neurons; experiment: Mossy fiber LTP, whole-cell patch clamp in hippocampal slices; format: cell-based, mice; conditions: for LTP (potentiation of the EPSC after tetanic stimulation): peptide 50 μM in patch electrode (postsynaptic), 25 to 30 minutes after tetanic stimulation; for LTP PPR (paired pulse ratio after LTP induction) / control PPR (paired pulse ratio before LTP induction): 40 ms interval
Description: The role of the GluR2 subunit in LTP at mossy fiber terminals was evaluated in whole cell patch clamp experiments using hippocampal CA3 pyramidal neurons. Briefly, transverse hippocampal slices (350 μm) were made from P12-18 mice (strain 129SvEv) as previously described (Contractor et al., Neuron 29, 209-16. (2001)). Slices were transferred to a recording chamber, and whole-cell patch clamp recordings made from visually identified pyramidal cells in the CA3 region of the hippocampus. The recording electrode (i.e., patch electrode) is filled with an “internal” solution described below. A seal between the glass of the electrode and the membrane of the cell is made. The seal is then “broken through” by pushing the electrode through the membrane to gain low resistance access to the cell interior and enable voltage clamping of the cell membrane. This also allows dialysis of the cell with test reagents such as peptides and antibodies. A stimulating electrode is attached to a current source and allows current to stimulate action potentials while a reference electrode is placed in the recording bath. The composition of the internal solution was: 95 mM CsF, 25 mM CsCl, 10 mM Cs-HEPES, 10 mM Cs-EGTA, 2 mM NaCl, 2 mM Mg-ATP, 10 mM QX-314, 5 mM TEA-Cl, 5 mM 4-AP, pH adjusted to 7.3 with CsOH.
Peptides were added directly to the internal solution on the day of the experiment from frozen stocks in protease inhibitors made up in phosphate buffered saline (PBS). To avoid leakage of peptides or antibodies into the extracellular space, pipette tips were filled with normal internal solution and then the pipette was backfilled with peptide/antibody containing internal fluid. The final concentration of peptides was 50 μM in all experiments. The final concentration of protease inhibitors were: bestatin 2 μg/ml, leupeptin 25 ng/ml, pepstatin 35 ng/ml, aprotinin 100 ng/ml.
In control experiments where peptides were not included, internal solutions were made up in exactly the same way with protease inhibitors in PBS but lacking any added peptide. Antibodies were made up in PBS stock and added directly to the internal solution at a final concentration of 20 μg/ml. The pH and osmolarity of all internal solutions were checked before use. Series resistances (Rs) were generally <10M and were continuously monitored throughout the duration of the experiment. […] Experiments using mutant mice were performed with heterozygous breedings blind to the genotype of the animal.
Mossy fiber EPSCs were evoked with a monopolar glass electrode positioned in the stratum lucidum. EPSCs were evaluated using a 40 ms interval between recordings. All recordings were made in the continuous presence of bicuculline (10 μM), picrotoxin (50 μM) and the NMDA receptor antagonist D-AP5 [D(-)-2-Amino-5-phosphonopentanoic acid; 50 μM]. The group II mGluR agonist, LCCG-1 (10 μM), which selectively depresses mossy fiber transmission, was applied at the end of each experiment. LTP was induced by tetanic stimulation comprising three 1 s stimulations (100 Hz) with a 10 s interval. Data are presented as mean±SEM. Parameters were compared using the Student's unpaired t-test where not specified, and the K-S test, p<0.05 was considered significant.
Cumulative probability is determined by ranking the EPSC data set from the highest to the lowest value from 20 to 30 minutes post tetanization. Each point is graphed with its corresponding percentile. […] The lowest LTP value was about 40% signified by the lowest point on the 1 st graph (open circles) and the largest LTP was about 160%.

[2] = system: mossy fiber synapses of hippocampal CA3 pyramidal neurons; experiment: Forskolin-mediated potentiation of mossy fiber EPSCs; format: cell-based, mice; conditions: EphB2 peptide in recording electrode
[3] = target: postsynaptic EphB receptors; experiment: cell-based or functional assay
EphA8 = target: T2, EphA8 (Mus musculus, UniProt O09127); conditions: read-out: Kd for binding to EphA8; cited from earlier work
T2 sequence (O09127 27-1004): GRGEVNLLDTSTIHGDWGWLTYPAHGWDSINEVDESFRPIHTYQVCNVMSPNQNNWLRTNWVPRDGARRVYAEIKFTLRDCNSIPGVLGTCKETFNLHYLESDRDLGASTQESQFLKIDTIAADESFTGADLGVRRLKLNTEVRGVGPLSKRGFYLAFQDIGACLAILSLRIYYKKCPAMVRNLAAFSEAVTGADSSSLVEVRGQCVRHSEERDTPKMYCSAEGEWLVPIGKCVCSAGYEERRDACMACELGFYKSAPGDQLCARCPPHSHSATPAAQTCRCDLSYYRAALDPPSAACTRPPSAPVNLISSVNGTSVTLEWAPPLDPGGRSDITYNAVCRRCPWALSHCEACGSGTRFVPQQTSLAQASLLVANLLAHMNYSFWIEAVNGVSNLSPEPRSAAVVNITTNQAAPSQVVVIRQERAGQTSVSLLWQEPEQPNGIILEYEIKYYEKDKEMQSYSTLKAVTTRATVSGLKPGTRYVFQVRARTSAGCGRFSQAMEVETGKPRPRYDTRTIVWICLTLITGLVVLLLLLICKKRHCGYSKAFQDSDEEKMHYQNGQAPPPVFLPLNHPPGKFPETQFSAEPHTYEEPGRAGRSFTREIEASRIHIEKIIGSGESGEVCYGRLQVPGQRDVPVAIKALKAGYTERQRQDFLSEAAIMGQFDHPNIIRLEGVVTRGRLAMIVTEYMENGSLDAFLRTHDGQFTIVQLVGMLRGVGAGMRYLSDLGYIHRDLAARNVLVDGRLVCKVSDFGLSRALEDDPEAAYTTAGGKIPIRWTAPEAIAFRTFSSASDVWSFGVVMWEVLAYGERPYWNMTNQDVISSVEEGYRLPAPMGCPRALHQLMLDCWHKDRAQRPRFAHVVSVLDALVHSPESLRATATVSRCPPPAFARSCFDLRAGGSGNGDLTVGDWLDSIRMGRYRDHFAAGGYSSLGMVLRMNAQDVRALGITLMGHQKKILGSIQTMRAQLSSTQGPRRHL

[4] = peptide 50 μM in patch electrode
[5] = peptide in patch electrode (postsynaptic)
[6] = peptide in patch electrode, 20 to 30 minutes post tetanization

R2ctPO4: phosphorylated GluR2/3 peptide; same as SEQ ID NO: 1 except the serine is phosphorylated (NVYGIE[pS]VKI) [reference compound]
displacement of labeled EphB2 from GRIP PDZ4-6 (GRIP PDZ4-6; listed as GluR2ctPO4): unable to displace binding; also recorded: do not inhibit binding of EphB2 to GRIP
LTP (potentiation of the EPSC after tetanic stimulation) [1]: 210±19%
LTP PPR (paired pulse ratio after LTP induction) [1, 4]: 2.5±0.16
control PPR (paired pulse ratio before LTP induction) [1, 4]: 3.0±0.18
effect on tetanus induced LTP [1, 5]: little effect on induction of LTP
effect on tetanus induced LTP ([1]; peptide in patch electrode (postsynaptic), listed as GluR2ctPO4): do not inhibit LTP

QMNQIQSVEV [EphB2 peptide, Gln-Met-Asn-Gln-Ile-Gln-Ser-Val-Glu-Val]
Ki (GRIP PDZ4-6; 35S-EphB2 50 nM, fitted to the Hill equation, read-out: Ki, displacement of 35S-EphB2 binding to His-GRIP-PDZ 4-6): 43 nM
LTP (potentiation of the EPSC after tetanic stimulation) [1]: 125±15%
LTP PPR (paired pulse ratio after LTP induction) [1, 4]: 2.5±0.27
control PPR (paired pulse ratio before LTP induction) [1, 4]: 2.5±0.22
PTP (post-tetanic potentiation) ([1]; peptide 50 μM in patch electrode, immediately following tetanic stimulation): 500±76%
effect on PTP [1, 5]: significantly impaired; also recorded: significantly depressed
effect on tetanus induced LTP [1, 5]: significantly impaired; also recorded: inhibit mossy fiber hippocampal CA3 neuronal LTP; also recorded: significantly depressed
largest LTP of single recordings (cumulative probability, FIG. 5) [1, 6]: about 160%
lowest LTP value of single recordings (cumulative probability, FIG. 5) [1, 6]: about 40%
forskolin-mediated potentiation with peptide in the recording electrode [2]: 209±20%

NVIYVKSEIG [R2ctSC, reference compound]
displacement of labeled EphB2 from GRIP PDZ4-6 (GRIP PDZ4-6; listed as GluR2ctSC): unable to displace binding; also recorded: do not inhibit binding of EphB2 to GRIP
LTP (potentiation of the EPSC after tetanic stimulation) [1]: 200±11%
LTP PPR (paired pulse ratio after LTP induction) [1, 4]: 2.4±0.10
control PPR (paired pulse ratio before LTP induction) [1, 4]: 3.1±0.19
effect on basal synaptic transmission / basal EPSC amplitudes ([1]; peptide in patch electrode): stable
effect on tetanus induced LTP [1, 5]: little effect on induction of LTP
effect on tetanus induced LTP ([1]; peptide in patch electrode (postsynaptic), listed as GluR2ctSC): do not inhibit LTP

B1: ephrin-B1-Fc fusion protein (Fc fusion, mouse, not shown: a dimerising Fc or GST)
chain (part 1 of 2): ATPLAKNLEPVSWSSLNPKFLSGKGLVIYPKIGDKLDIICPRAEAGRPYEYYKLYLVRPEQAAACSTVLDPNVLVTCNKPHQEIRFTIKFQEFSPNYMGLEFKKYHDYYITSTSNGSLEGLENREGGVCRTRTMKIVMKVGQDPNAVTPEQLTTSRPSKESDNTVKTATQAPGRGSQGDSDGKHETVNQEEKSGPGAGGGGSGDSIEGRMD
chain (part 2 of 2): HHHHH
LTP after tetanus in the presence of ephrinB1-Fc (5 µg/ml) [3]: 139%
forskolin potentiation of mossy fiber EPSCs after pre-application of ephrin-B1-Fc [3]: 219%
post-tetanic potentiation [3]: 430%

B2: ephrin-A5: a 28 kDa, 228 amino acid glycoprotein; ephrin ligand (protein, UniProt P52803 1-228, looked up)
chain: MLHVEMLTLVFLVLWMCVFSQDPGSKAVADRYAVYWNSSNPRFQRGDYHIDVCINDYLDVFCPHYEDSVPEDKTERYVLYMVNFDGYSACDHTSKGFKRWECNRPHSPNGPLKFSEKFQLFTPFSLGFEFRPGREYFYISSAIPDNGRRSCLKLKVFVRPTNSCMKTIGVHDRVFDVNDKVENSLEPADDTVHESAEPSRGENAAQTPRIPSRLLAILLFLLAMLLTL
modifications: full-length
notes: a 28 kDa, 228 amino acid glycoprotein; ephrin ligand
Kd (EphA8): 0.5 nM
